Assay results as given in PubChem BioAssay (NCI).
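Test compounds were applied to cells in 96-well plates for 48 hours at 5 doses. At the GI50, growth is halved. TGI marks complete inhibition of growth.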

Key:
Test in all cases: growth of human tumour cells (NCI), 48 h
BT-549 breast = tested on: BT-549 breast
CAKI-1 renal = tested on: CAKI-1 renal
HOP-92 NSCLC = tested on: HOP-92 NSCLC
HT29 colon = tested on: HT29 colon
NCI-H23 lung = tested on: NCI-H23 lung
NCI-H460 lung = tested on: NCI-H460 lung
RXF 393 renal = tested on: RXF 393 renal
SF-539 CNS = tested on: SF-539 CNS
SK-MEL-5 melanoma = tested on: SK-MEL-5 melanoma
U251 CNS = tested on: U251 CNS

Compound | GI50 (BT-549 breast) | TGI (BT-549 breast) | GI50 (CAKI-1 renal) | TGI (CAKI-1 renal) | GI50 (HOP-92 NSCLC) | TGI (HOP-92 NSCLC) | GI50 (HT29 colon) | TGI (HT29 colon) | GI50 (NCI-H23 lung) | TGI (NCI-H23 lung) | GI50 (NCI-H460 lung) | TGI (NCI-H460 lung) | GI50 (RXF 393 renal) | TGI (RXF 393 renal) | GI50 (SF-539 CNS) | TGI (SF-539 CNS) | GI50 (SK-MEL-5 melanoma) | TGI (SK-MEL-5 melanoma) | GI50 (U251 CNS) | TGI (U251 CNS)
Cn1cc(C2=C(c3cn(CCCSC(=N)N)c4ccccc34)C(=O)NC2=O)c2ccccc21 | 4.83 µM | 10.8 µM | 7.68 µM | 23.4 µM | 3.83 µM | 11.2 µM | 2.73 µM | 11.1 µM | 3.32 µM | 9.72 µM | 3.65 µM | 7.54 µM | 1.18 µM | 2.82 µM | 1.9 µM | 5.16 µM | 1.56 µM | 4.27 µM | 1.61 µM | 5.06 µM
CCCCc1ccc(C(N)=O)nc1 | > 100 µM | > 100 µM | > 100 µM | > 100 µM | > 100 µM | > 100 µM | > 100 µM | > 100 µM | > 100 µM | > 100 µM | > 100 µM | > 100 µM | > 100 µM | > 100 µM | > 100 µM | > 100 µM | > 100 µM | > 100 µM | > 100 µM | > 100 µM
COC(=O)c1cc2c([nH]c3ccccc32)c(-c2nc3cc(N(S(=O)(=O)c4ccc(C)cc4)S(=O)(=O)c4ccc(C)cc4)c(OC)cc3cc2CO)n1 | > 100 µM | > 100 µM | > 100 µM | > 100 µM | > 100 µM | > 100 µM | > 100 µM | > 100 µM | > 100 µM | > 100 µM | > 100 µM | > 100 µM | > 100 µM | > 100 µM | 56.1 µM | > 100 µM | > 100 µM | > 100 µM | 59.5 µM | > 100 µM
CCOC(=O)C(Cc1ccc(N(CCCl)CCCl)cc1)NC(=O)C(CC(C)C)NC(C)=O (stereo not given) | 7.07 µM | 21.7 µM | 0.32 µM | 2.32 µM | 0.727 µM | 2.82 µM | 1.28 µM | 5.68 µM | 0.679 µM | 2.68 µM | 0.0763 µM | 1.54 µM | 0.944 µM | 2.3 µM | 1.09 µM | 7.01 µM | 2.45 µM | 9.82 µM | 1.39 µM | 8.13 µM
